ChEMBL document CHEMBL2396528, “Synthesis of new conjugated coumarin-benzimidazole hybrids and their anticancer activity” (2013)

Columns and labels:
Assay type in all cases: functional
SK-MEL-2 = assay: Cytotoxicity against human SK-MEL-2 cells assessed as growth inhibition at 10 uM after 48 hrs by SRB assay relative to control; conditions: SK-MEL-2, 48 h, read-out: GI
DU-145 = assay: Cytotoxicity against human DU145 cells assessed as growth inhibition at 10 uM after 48 hrs by SRB assay relative to control; conditions: DU-145, 48 h, read-out: GI
A549 = assay: Cytotoxicity against human A549 cells assessed as growth inhibition at 10 uM after 48 hrs by SRB assay relative to control; conditions: A549, 48 h, read-out: GI
Hs-578T = assay: Cytotoxicity against human Hs578T cells assessed as growth inhibition at 10 uM after 48 hrs by SRB assay relative to control; conditions: read-out: GI
K562 = assay: Cytotoxicity against human K562 cells assessed as growth inhibition at 10 uM after 48 hrs by SRB assay relative to control; conditions: K562, 48 h, read-out: GI
SK-OV-3 = assay: Cytotoxicity against human SKOV3 cells assessed as growth inhibition at 10 uM after 48 hrs by SRB assay relative to control; conditions: SK-OV-3, 48 h, read-out: GI
NCI-H23 = assay: Cytotoxicity against human NCI-H23 cells assessed as growth inhibition at 10 uM after 48 hrs by SRB assay relative to control; conditions: NCI-H23, 48 h, read-out: GI
A498 = assay: Cytotoxicity against human A498 cells assessed as growth inhibition at 10 uM after 48 hrs by SRB assay relative to control; conditions: A498, 48 h, read-out: GI
NCI-H322M = assay: Cytotoxicity against human NCI-H322M cells assessed as growth inhibition at 10 uM after 48 hrs by SRB assay relative to control; conditions: read-out: GI
NCI-H226 = assay: Cytotoxicity against human NCI-H226 cells assessed as growth inhibition at 10 uM after 48 hrs by SRB assay relative to control; conditions: NCI-H226, 48 h, read-out: GI
HCT-15 = assay: Cytotoxicity against human HCT15 cells assessed as growth inhibition at 10 uM after 48 hrs by SRB assay relative to control; conditions: HCT-15, 48 h, read-out: GI
SNB-75 = assay: Cytotoxicity against human SNB75 cells assessed as growth inhibition at 10 uM after 48 hrs by SRB assay relative to control; conditions: SNB-75, 48 h, read-out: GI
HOP-62 = assay: Cytotoxicity against human HOP62 cells assessed as growth inhibition at 10 uM after 48 hrs by SRB assay relative to control; conditions: HOP-62, 48 h, read-out: GI
HOP-92 = assay: Cytotoxicity against human HOP92 cells assessed as growth inhibition at 10 uM after 48 hrs by SRB assay relative to control; conditions: HOP-92, 48 h, read-out: GI
BT-549 = assay: Cytotoxicity against human BT549 cells assessed as growth inhibition at 10 uM after 48 hrs by SRB assay relative to control; conditions: BT-549, 48 h, read-out: GI
IGROV-1 = assay: Cytotoxicity against human IGROV1 cells assessed as growth inhibition at 10 uM after 48 hrs by SRB assay relative to control; conditions: IGROV-1, 48 h, read-out: GI
SF-268 = assay: Cytotoxicity against human SF268 cells assessed as growth inhibition at 10 uM after 48 hrs by SRB assay relative to control; conditions: SF-268, 48 h, read-out: GI
PC-3 = assay: Cytotoxicity against human PC3 cells assessed as growth inhibition at 10 uM after 48 hrs by SRB assay relative to control; conditions: PC-3, 48 h, read-out: GI
KM12 = assay: Cytotoxicity against human KM12 cells assessed as growth inhibition at 10 uM after 48 hrs by SRB assay relative to control; conditions: KM12, 48 h, read-out: GI
RPMI-8226 = assay: Cytotoxicity against human RPMI8226 cells assessed as growth inhibition at 10 uM after 48 hrs by SRB assay relative to control; conditions: RPMI-8226, 48 h, read-out: GI
CCRF-CEM = assay: Cytotoxicity against human CCRF-CEM cells assessed as growth inhibition at 10 uM after 48 hrs by SRB assay relative to control; conditions: read-out: GI
MDA-MB-468 = assay: Cytotoxicity against human MDA-MB-468 cells assessed as growth inhibition at 10 uM after 48 hrs by SRB assay relative to control; conditions: MDA-MB-468, 48 h, read-out: GI
SF-295 = assay: Cytotoxicity against human SF295 cells assessed as growth inhibition at 10 uM after 48 hrs by SRB assay relative to control; conditions: SF-295, 48 h, read-out: GI
CAKI-1 = assay: Cytotoxicity against human Caki1 cells assessed as growth inhibition at 10 uM after 48 hrs by SRB assay relative to control; conditions: CAKI-1, 48 h, read-out: GI
SR = assay: Cytotoxicity against human SR cells assessed as growth inhibition at 10 uM after 48 hrs by SRB assay relative to control; conditions: read-out: GI
OVCAR-3 = assay: Cytotoxicity against human OVCAR3 cells assessed as growth inhibition at 10 uM after 48 hrs by SRB assay relative to control; conditions: OVCAR-3, 48 h, read-out: GI
HL-60(TB) = assay: Cytotoxicity against human HL-60(TB) cells assessed as growth inhibition at 10 uM after 48 hrs by SRB assay relative to control; conditions: HL-60, 48 h, read-out: GI
SW-620 = assay: Cytotoxicity against human SW620 cells assessed as growth inhibition at 10 uM after 48 hrs by SRB assay relative to control; conditions: SW-620, 48 h, read-out: GI
HCC 2998 = assay: Cytotoxicity against human HCC2998 cells assessed as growth inhibition at 10 uM after 48 hrs by SRB assay relative to control; conditions: HCC 2998, 48 h, read-out: GI
OVCAR-8 = assay: Cytotoxicity against human OVCAR8 cells assessed as growth inhibition at 10 uM after 48 hrs by SRB assay relative to control; conditions: OVCAR-8, 48 h, read-out: GI
OVCAR-5 = assay: Cytotoxicity against human OVCAR5 cells assessed as growth inhibition at 10 uM after 48 hrs by SRB assay relative to control; conditions: OVCAR-5, 48 h, read-out: GI
M14 = assay: Cytotoxicity against human M14 cells assessed as growth inhibition at 10 uM after 48 hrs by SRB assay relative to control; conditions: M14, 48 h, read-out: GI
Malme-3M = assay: Cytotoxicity against human MALME-3M cells assessed as growth inhibition at 10 uM after 48 hrs by SRB assay relative to control; conditions: read-out: GI
U-251 = assay: Cytotoxicity against human U251 cells assessed as growth inhibition at 10 uM after 48 hrs by SRB assay relative to control; conditions: U-251, 48 h, read-out: GI
UACC-257 = assay: Cytotoxicity against human UACC257 cells assessed as growth inhibition at 10 uM after 48 hrs by SRB assay relative to control; conditions: UACC-257, 48 h, read-out: GI

| SMILES | inhibition of growth at 10 µM (SK-MEL-2) | inhibition of growth at 10 µM (DU-145) | inhibition of growth at 10 µM (A549) | inhibition of growth at 10 µM (Hs-578T) | inhibition of growth at 10 µM (K562) | inhibition of growth at 10 µM (SK-OV-3) | inhibition of growth at 10 µM (NCI-H23) | inhibition of growth at 10 µM (A498) | inhibition of growth at 10 µM (NCI-H322M) | inhibition of growth at 10 µM (NCI-H226) | inhibition of growth at 10 µM (HCT-15) | inhibition of growth at 10 µM (SNB-75) | inhibition of growth at 10 µM (HOP-62) | inhibition of growth at 10 µM (HOP-92) | inhibition of growth at 10 µM (BT-549) | inhibition of growth at 10 µM (IGROV-1) | inhibition of growth at 10 µM (SF-268) | inhibition of growth at 10 µM (PC-3) | inhibition of growth at 10 µM (KM12) | inhibition of growth at 10 µM (RPMI-8226) | also measured |
| --- | --- | --- | --- | --- | --- | --- | --- | --- | --- | --- | --- | --- | --- | --- | --- | --- | --- | --- | --- | --- | --- |
| CN1CCN(c2ccc3cc(-c4nc5ccccc5[nH]4)c(=O)oc3c2)CC1 | < 20% | < 20% | < 20% | < 20% | 56.4% | < 20% | 25.5% | < 20% | < 20% | < 20% | < 20% | < 20% | < 20% | 41.1% | < 20% | 20.1% | < 20% | < 20% | < 20% | 35.4% | inhibition of growth at 10 µM (CCRF-CEM): 26.5%; inhibition of growth at 10 µM (MDA-MB-468): 31.7%; inhibition of growth at 10 µM (SF-295): < 20%; inhibition of growth at 10 µM (CAKI-1): < 20%; inhibition of growth at 10 µM (SR): < 20%; inhibition of growth at 10 µM (OVCAR-3): < 20%; inhibition of growth at 10 µM (HL-60(TB)): 27.1%; inhibition of growth at 10 µM (SW-620): < 20%; inhibition of growth at 10 µM (HCC 2998): < 20%; inhibition of growth at 10 µM (OVCAR-8): < 20%; inhibition of growth at 10 µM (OVCAR-5): < 20%; inhibition of growth at 10 µM (M14): < 20%; inhibition of growth at 10 µM (Malme-3M): < 20%; inhibition of growth at 10 µM (U-251): < 20%; inhibition of growth at 10 µM (UACC-257): 25.3% |
| O=c1oc2cc(NCCO)ccc2cc1-c1nc2ccccc2[nH]1 | < 20% | < 20% | < 20% | < 20% | 57.3% | < 20% | 32.9% | < 20% | 29.7% | 30% | 72.7% | < 20% | 24.8% | < 20% | 33.1% | 24.5% | 26.1% | 56.7% | < 20% | 46.6% | inhibition of growth at 10 µM (CCRF-CEM): 72.5%; inhibition of growth at 10 µM (MDA-MB-468): 48.4%; inhibition of growth at 10 µM (SF-295): 24.5%; inhibition of growth at 10 µM (CAKI-1): 22.4%; inhibition of growth at 10 µM (SR): < 20%; inhibition of growth at 10 µM (OVCAR-3): 32.8%; inhibition of growth at 10 µM (HL-60(TB)): 80.5%; inhibition of growth at 10 µM (SW-620): 21.4%; inhibition of growth at 10 µM (HCC 2998): < 20%; inhibition of growth at 10 µM (OVCAR-8): 31.4%; inhibition of growth at 10 µM (OVCAR-5): < 20%; inhibition of growth at 10 µM (M14): 25.4%; inhibition of growth at 10 µM (Malme-3M): 29.8%; inhibition of growth at 10 µM (U-251): 20.7%; inhibition of growth at 10 µM (UACC-257): 28% |
| O=c1oc2cc(N3CCOCC3)ccc2cc1-c1nc2ccccc2[nH]1 | < 20% | < 20% | < 20% | < 20% | < 20% | < 20% | < 20% | < 20% | < 20% | < 20% | < 20% | < 20% | < 20% | 20.7% | < 20% | < 20% | < 20% | < 20% | < 20% | < 20% | inhibition of growth at 10 µM (CCRF-CEM): < 20%; inhibition of growth at 10 µM (MDA-MB-468): < 20%; inhibition of growth at 10 µM (SF-295): < 20%; inhibition of growth at 10 µM (CAKI-1): < 20%; inhibition of growth at 10 µM (SR): < 20%; inhibition of growth at 10 µM (OVCAR-3): < 20%; inhibition of growth at 10 µM (HL-60(TB)): < 20%; inhibition of growth at 10 µM (SW-620): < 20%; inhibition of growth at 10 µM (HCC 2998): < 20%; inhibition of growth at 10 µM (OVCAR-8): < 20%; inhibition of growth at 10 µM (OVCAR-5): < 20%; inhibition of growth at 10 µM (M14): < 20%; inhibition of growth at 10 µM (Malme-3M): < 20%; inhibition of growth at 10 µM (U-251): < 20%; inhibition of growth at 10 µM (UACC-257): < 20% |
